How the values were obtained:
[1] = Photostability under UV exposure; format: physicochemical; settings: Tableau 1; for Perte d'activité (%): UV exposure λ 300 nm, P 8.32 W/m^2, one hour; for A (t=0 min): absorbance before UV exposure
Text: La stabilité des composés 1 à 7 aux UV a été étudiée par soumission à une exposition (λ : 300 nm, P : 8.32 W/m^2) pendant une heure.
L'Avobenzone a été utilisée comme molécule de référence. Cette molécule est connue pour être […] sous exposition UV, ce qui n'est pas du tout le cas d'autres composés bio-sourcés.
La photostabilité des composés 8 à 11 a également été étudiée, de manière identique au test appliqué aux composés 1 à 7. Les résultats obtenus sont présentés dans le Tableau 2. […] Cette méthodologie a été appliquée à l'ensemble des molécules décrites ci-dessus. Tableau 2 : Stabilité des composés 8 à 11 soumis à une exposition aux UV.

[2] = UV-Vis absorption spectrum (anti-UVA and blue light properties); format: physicochemical; set-up: λmax: unit not given here; settings: Tableau 1
Text: Un spectre UV-Vis a été réalisé dans l'éthanol à 10^-5 mol/L pour les composés 1 à 7, qui sont des dérivés furaniques de l'acide de Medrum. L'Avobenzone, une molécule très largement utilisée comme filtre UVA dans les crèmes solaires, a été utilisée en tant que référence.
Cette méthodologie a été employée pour évaluer les propriétés anti-UV des composés 8 à 11, qui sont des dérivés phénoliques de l'acide de Medrum, des composés 12 à 15 qui sont des dérivés pyrroliques de l'acide de Meldrum, des composés 16 à 18 qui sont des dérivés vinylphénol de l'acide de Meldrum, le composé 19 qui est un dérivé vinylfurane de l'acide de Meldrum.

[3] = target: T1, AR (récepteur des androgènes) (Homo sapiens, UniProt P10275); test: Endocrine system: receptor activity in presence of compound (agonist effect); format: cell-based; settings: Figure 6, C = 10 µM; even at the highest concentrations
T1 sequence (P10275 1-920): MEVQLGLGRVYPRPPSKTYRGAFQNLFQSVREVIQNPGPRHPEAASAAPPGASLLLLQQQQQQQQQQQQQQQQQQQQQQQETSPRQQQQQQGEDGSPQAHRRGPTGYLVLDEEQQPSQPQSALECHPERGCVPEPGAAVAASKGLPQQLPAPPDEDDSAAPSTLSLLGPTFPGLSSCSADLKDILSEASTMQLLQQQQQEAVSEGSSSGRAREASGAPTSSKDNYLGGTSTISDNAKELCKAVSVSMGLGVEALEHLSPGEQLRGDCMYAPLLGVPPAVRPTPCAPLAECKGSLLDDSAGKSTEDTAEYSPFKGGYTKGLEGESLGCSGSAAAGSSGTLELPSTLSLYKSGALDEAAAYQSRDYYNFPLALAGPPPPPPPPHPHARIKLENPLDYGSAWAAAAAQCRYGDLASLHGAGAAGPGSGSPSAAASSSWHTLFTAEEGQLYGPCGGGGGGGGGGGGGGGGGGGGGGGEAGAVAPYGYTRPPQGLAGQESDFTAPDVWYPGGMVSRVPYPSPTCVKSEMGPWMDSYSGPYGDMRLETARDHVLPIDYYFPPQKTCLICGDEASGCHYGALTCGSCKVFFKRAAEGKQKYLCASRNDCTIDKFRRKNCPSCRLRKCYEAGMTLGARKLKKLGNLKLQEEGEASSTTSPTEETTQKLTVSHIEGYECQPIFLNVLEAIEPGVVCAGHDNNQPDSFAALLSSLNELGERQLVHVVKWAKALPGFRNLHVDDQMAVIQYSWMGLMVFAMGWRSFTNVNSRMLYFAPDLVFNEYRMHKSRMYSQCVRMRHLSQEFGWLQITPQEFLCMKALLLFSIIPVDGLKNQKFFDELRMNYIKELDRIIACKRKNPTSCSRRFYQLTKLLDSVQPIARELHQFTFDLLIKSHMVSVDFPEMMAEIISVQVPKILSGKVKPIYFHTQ
Text: (§1) L'effet des composés 1 et 4 sur le système endocrinien a été évalué pour leurs propriétés agonistes et antagonistes sur différents récepteurs : ERα (récepteur œstrogène alpha), AR (récepteur des androgènes) et PXR (pregnane X receptor). Un premier test consiste à étudier l'activité des récepteurs en présence du composé 1 ou 4 (effet agoniste). […] Un second test vise à l'étude de l'activité des récepteurs en présence du composé 1 ou 4 et d'une molécule de référence pour chaque récepteur (effet antagoniste).

[4] = target: T2, ERα (récepteur œstrogène alpha) (Homo sapiens, UniProt P03372); test: as above; format: cell-based; settings: Figure 6, C = 10 µM; even at the highest concentrations
T2 sequence (P03372 1-595): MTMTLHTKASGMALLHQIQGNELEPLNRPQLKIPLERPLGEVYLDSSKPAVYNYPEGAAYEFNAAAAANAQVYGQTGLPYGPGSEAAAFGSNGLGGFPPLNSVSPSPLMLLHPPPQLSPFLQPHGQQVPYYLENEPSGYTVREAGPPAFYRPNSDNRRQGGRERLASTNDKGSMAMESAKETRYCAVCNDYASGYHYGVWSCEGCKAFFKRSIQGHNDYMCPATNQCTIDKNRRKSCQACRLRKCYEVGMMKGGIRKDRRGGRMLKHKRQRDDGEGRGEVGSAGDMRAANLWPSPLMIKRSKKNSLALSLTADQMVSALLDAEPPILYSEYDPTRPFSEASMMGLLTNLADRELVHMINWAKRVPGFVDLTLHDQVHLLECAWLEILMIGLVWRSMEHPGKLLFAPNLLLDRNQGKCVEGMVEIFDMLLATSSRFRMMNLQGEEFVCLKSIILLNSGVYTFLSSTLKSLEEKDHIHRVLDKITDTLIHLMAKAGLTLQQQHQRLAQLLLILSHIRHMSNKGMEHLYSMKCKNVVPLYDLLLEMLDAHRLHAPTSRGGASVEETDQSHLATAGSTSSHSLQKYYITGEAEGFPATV
Text: as §1

[5] = target: T3, PXR (pregnane X receptor) (Homo sapiens, UniProt O75469); test: as above; format: cell-based; settings: Figure 6, C = 10 µM; even at the highest concentrations
T3 sequence (O75469 1-434): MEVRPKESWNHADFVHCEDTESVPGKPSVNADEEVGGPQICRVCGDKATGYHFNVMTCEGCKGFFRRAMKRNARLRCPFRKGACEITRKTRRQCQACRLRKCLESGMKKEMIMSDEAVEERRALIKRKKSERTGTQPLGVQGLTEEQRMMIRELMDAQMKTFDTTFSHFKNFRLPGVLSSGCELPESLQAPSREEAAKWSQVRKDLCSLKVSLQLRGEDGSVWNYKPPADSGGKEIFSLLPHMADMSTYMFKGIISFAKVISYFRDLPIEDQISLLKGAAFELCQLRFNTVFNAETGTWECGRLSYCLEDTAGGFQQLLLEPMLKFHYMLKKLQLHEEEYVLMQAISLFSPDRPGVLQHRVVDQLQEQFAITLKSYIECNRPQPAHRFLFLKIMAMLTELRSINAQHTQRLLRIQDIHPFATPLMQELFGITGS
Text: as §1

[6] = target: T1, AR (récepteur des androgènes); test: Endocrine system: receptor activity in presence of compound and reference molecule (antagonist effect); format: cell-based; settings: Figure 8; with reference molecule; even at the highest concentrations
Text: as §1

[7] = target: T2, ERα (récepteur œstrogène alpha); test: as above; format: cell-based; settings: Figure 7; with reference molecule; even at the highest concentrations
Text: as §1

[8] = target: T3, PXR (pregnane X receptor); test: as above; format: cell-based; settings: Figure 9; with reference molecule; even at the highest concentrations
Text: as §1

Row | Perte d'activité (%) [1] | Perte d'activité (%) ([1]; listed as Composé (1)) | A (t=0 min) [1] | λmax [2] | Perte d'activité (%) ([1]; listed as Composé (4)) | Compound | effet agoniste (activité du récepteur AR) [3] | effet agoniste (activité du récepteur ERα) [4] | effet agoniste (activité du récepteur PXR) [5] | effet antagoniste sur le récepteur AR [6] | effet antagoniste sur le récepteur ERα [7] | effet antagoniste sur le récepteur PXR [8]
1 | < 5% | 3.5% | 0.3381 | 361 |  | CC1(C)OC(=O)C(=Cc2ccco2)C(=O)O1 [Composé 1, 5-(2-Furanylmethylene)-2,2-dimethyl-1,3-dioxane-4,6-dione] | n'induisent pas une activité anormale des récepteurs | n'induisent pas une activité anormale des récepteurs | n'induisent pas une activité anormale des récepteurs | n'empêchent pas l'activité des récepteurs envers les molécules de référence | n'empêchent pas l'activité des récepteurs envers les molécules de référence | n'empêchent pas l'activité des récepteurs envers les molécules de référence
2 | < 5% |  | 0,28814 | 374 | 3,4% | CC1(C)OC(=O)C(=Cc2ccc(CO)o2)C(=O)O1 [compound 4, 5-[[5-(Hydroxymethyl)-2-furanyl]methylene]-2,2-dimethyl-1,3-dioxane-4,6-dione] | n'induisent pas une activité anormale des récepteurs | n'induisent pas une activité anormale des récepteurs | n'induisent pas une activité anormale des récepteurs | n'empêchent pas l'activité des récepteurs envers les molécules de référence | n'empêchent pas l'activité des récepteurs envers les molécules de référence | n'empêchent pas l'activité des récepteurs envers les molécules de référence
